# Patent US20130210633A1, “METHOD FOR REDUCING WATER STRESS IN PLANTS” (SUMITOMO CHEMICAL COMPANY, LIMITED, priority 2010, published 2013)
# Counter-ions that a name gives are not always drawn.
# Test system: rice (cultivar: Nipponbare)
# Assay: Evaluation test for reduction of drought stress by rice seed treatment (plant weight)
# Type: in vivo
# Conditions: with drought stress conditions; for Ratio to non-treated group: fresh weight of above-ground part; for Fresh weight of the above-ground part: seed treatment, average of 3 repetitions
# Procedure: Evaluation Test for Reduction of Drought Stress by Rice Seed Treatment (Plant Weight) A Blank slurry solution containing 5% (V/V) color coat red (Becker Underwood, Inc.), 5% (V/V) CF-Clear (Becker Underwood, Inc.) and 0.4% Maxim XL (Syngenta) was prepared. A sodium salt of the compound “A” was dissolved in the Blank slurry to obtain a slurry solution containing the sodium salt of the compound “A” in a concentration of 333 to 10,000 ppm. In a 50-ml centrifuge tube made of a plastic, 300 μl of the above slurry solution was added to 10 g of rice seeds (cultivar: Nipponbare), followed by stirring for 3 to 5 minutes and further drying of the seeds. As a control, seeds treated by using the Blank slurry in place of the above slurry solution were used as seeds for a non-treated group. On wells of a 406-well plug plate, a filter paper was placed and rice seeds subjected to the above seed treatment were sown on the filter paper. Using a two-fold diluted Kimura B water culture solution (Plant Science 119: 39-47 (1996)), cultivation was performed for 14 days under the conditions of a temperature of 28° C./23° C. (day/night), an illuminance of 8,500 1× and a day length of 12 hours to obtain test plants. Test plants (each 5 seedlings) were placed in an empty 35 ml flat-bottomed test tube ([…]/manufactured by Sarstedt) and then left to stand for 2 days without being capped (this was used as a test group with the drought stress conditions). As a test group without the drought stress conditions, the test plants (each 5 seedlings) were placed in a centrifuge tube filled with 10 ml of a two-fold diluted Kimura B water culture solution, and then left to stand for 2 days without being capped. After that, the plants (each 5 seedlings) were transplanted to a plastic pot (N-71-130G, manufactured by TOKAN KOGYO CO., LTD.) filled with the field soil which had been subjected to a sterilization treatment and then cultivated for 14 days under the conditions of a temperature of 28° C./23° C. (day/night), an illuminance of 8,500 1× and a day length of 12 hours while performing bottom-surface irrigation. After the drought stress treatment, the fresh weight of the above-ground part of the five individuals of test plants in each test group was collectively measured and an average of 3 repetitions of each test group was determined. As a result, the fresh weight of the above-ground part of the test group in the present invention was apparently large as compared with the control and drought stress was reduced.
smiles,measurement,setting,value
"O=C(O)CCC(=O)NCCc1ccccc1 [Compound A, Na salt, 4-oxo-4-(2-phenylethyl)aminobutyric acid]",Ratio to non-treated group,0.01 mg/g of seeds,105%
same,Ratio to non-treated group,0.1 mg/g of seeds,105%
same,Ratio to non-treated group,0.25 mg/g of seeds,119%
same,Ratio to non-treated group,0.3 mg/g of seeds,121%
same,Fresh weight of the above-ground part,amount of chemical 0.01 mg/g of seeds,0.73 g/5 seedlings
same,Fresh weight of the above-ground part,amount of chemical 0.1 mg/g of seeds,0.73 g/5 seedlings
same,Fresh weight of the above-ground part,amount of chemical 0.25 mg/g of seeds,0.83 g/5 seedlings
same,Fresh weight of the above-ground part,amount of chemical 0.3 mg/g of seeds,0.84 g/5 seedlings
